Test results taken from ChEMBL document CHEMBL3774387, “Synthesis and anticancer evaluation of spermatinamine analogues” (Bioorg Med Chem Lett, 2016).

Legend:
MCF7 [1] = assay: Cytotoxicity against human MCF7 cells assessed as viable cells after 48 hrs by MTT assay; format: functional, cell-based; conditions: MCF7, 48 h
HeLa [2] = assay: Cytotoxicity against human HeLa cells assessed as viable cells after 48 hrs by MTT assay; format: functional, cell-based
[3] = Cytotoxicity against human DU145 cells assessed as viable cells after 48 hrs by MTT assay; format: functional, cell-based; conditions: DU-145, 48 h
[4] = Cytotoxicity against human DU145 cells assessed as viable cells after 24 hrs by MTT assay; format: functional, cell-based; conditions: DU-145, 24 h
HeLa [5] = assay: Cytotoxicity against human HeLa cells assessed as viable cells after 24 hrs by MTT assay; format: functional, cell-based
MCF7 [6] = assay: Cytotoxicity against human MCF7 cells assessed as viable cells after 24 hrs by MTT assay; format: functional, cell-based; conditions: MCF7, 24 h
HeLa [7] = assay: Cytotoxicity against human HeLa cells assessed as growth inhibition at 5 uM by MTT assay; format: functional, cell-based; conditions: TDE = time-dependent effect
HeLa [8] = assay: Cytotoxicity against human HeLa cells assessed as growth inhibition at 5 uM after 48 hrs by MTT assay; format: functional; conditions: read-out: GI
HeLa [9] = assay: Cytotoxicity against human HeLa cells assessed as growth inhibition at 10 uM after 24 hrs by MTT assay (reference value: 0 to 4.4%); format: functional; conditions: read-out: GI
MCF7 [10] = assay: Cytotoxicity against human MCF7 cells assessed as growth inhibition at 50 uM after 24 hrs by MTT assay (reference value: 2.7 to 9.3%); format: functional; conditions: MCF7, 24 h, read-out: GI
HeLa [11] = assay: Cytotoxicity against human HeLa cells assessed as growth inhibition at 1.25 uM after 24 hrs by MTT assay (reference value: 0 to 4.4%); format: functional; conditions: read-out: GI
MCF7 [12] = assay: Cytotoxicity against human MCF7 cells assessed as growth inhibition at 100 uM after 24 hrs by MTT assay (reference value: 2.7 to 9.3%); format: functional; conditions: MCF7, 24 h, read-out: GI
[13] = Cytotoxicity against human DU145 cells assessed as growth inhibition at 25 uM after 24 hrs by MTT assay (reference value: 1.2 to 7.8%); format: functional; conditions: DU-145, 24 h, read-out: GI
HeLa [14] = assay: Cytotoxicity against human HeLa cells assessed as growth inhibition at 50 uM after 24 hrs by MTT assay (reference value: 0 to 4.4%); format: functional; conditions: read-out: GI
MCF7 [15] = assay: Cytotoxicity against human MCF7 cells assessed as growth inhibition at 1.25 uM after 24 hrs by MTT assay (reference value: 2.7 to 9.3%); format: functional; conditions: MCF7, 24 h, read-out: GI
MCF7 [16] = assay: Cytotoxicity against human MCF7 cells assessed as growth inhibition at 25 uM after 24 hrs by MTT assay (reference value: 2.7 to 9.3%); format: functional; conditions: MCF7, 24 h, read-out: GI
MCF7 [17] = assay: Cytotoxicity against human MCF7 cells assessed as growth inhibition at 5 uM after 24 hrs by MTT assay (reference value: 2.7 to 9.3%); format: functional; conditions: MCF7, 24 h, read-out: GI
[18] = Cytotoxicity against human DU145 cells assessed as growth inhibition at 2.5 uM after 24 hrs by MTT assay (reference value: 1.2 to 7.8%); format: functional; conditions: DU-145, 24 h, read-out: GI
MCF7 [19] = assay: Cytotoxicity against human MCF7 cells assessed as growth inhibition at 2.5 uM after 24 hrs by MTT assay (reference value: 2.7 to 9.3%); format: functional; conditions: MCF7, 24 h, read-out: GI
HeLa [20] = assay: Cytotoxicity against human HeLa cells assessed as growth inhibition at 100 uM after 24 hrs by MTT assay (reference value: 0 to 4.4%); format: functional; conditions: read-out: GI
[21] = Cytotoxicity against human DU145 cells assessed as growth inhibition at 100 uM after 24 hrs by MTT assay (reference value: 1.2 to 7.8%); format: functional; conditions: DU-145, 24 h, read-out: GI
HeLa [22] = assay: Cytotoxicity against human HeLa cells assessed as growth inhibition at 2.5 uM after 24 hrs by MTT assay (reference value: 0 to 4.4%); format: functional; conditions: read-out: GI
HeLa [23] = assay: Cytotoxicity against human HeLa cells assessed as growth inhibition at 5 uM after 24 hrs by MTT assay (reference value: 0 to 4.4%); format: functional; conditions: read-out: GI
[24] = Cytotoxicity against human DU145 cells assessed as growth inhibition at 5 uM after 24 hrs by MTT assay (reference value: 1.2 to 7.8%); format: functional; conditions: DU-145, 24 h, read-out: GI
[25] = Cytotoxicity against human DU145 cells assessed as growth inhibition at 1.25 uM after 24 hrs by MTT assay (reference value: 1.2 to 7.8%); format: functional; conditions: DU-145, 24 h, read-out: GI
[26] = Cytotoxicity against human DU145 cells assessed as growth inhibition at 50 uM after 24 hrs by MTT assay (reference value: 1.2 to 7.8%); format: functional; conditions: DU-145, 24 h, read-out: GI
[27] = Cytotoxicity against human DU145 cells assessed as growth inhibition at 10 uM after 24 hrs by MTT assay (reference value: 1.2 to 7.8%); format: functional; conditions: DU-145, 24 h, read-out: GI
MCF7 [28] = assay: Cytotoxicity against human MCF7 cells assessed as growth inhibition at 10 uM after 24 hrs by MTT assay (reference value: 2.7 to 9.3%); format: functional; conditions: MCF7, 24 h, read-out: GI
HeLa [29] = assay: Cytotoxicity against human HeLa cells assessed as growth inhibition at 25 uM after 24 hrs by MTT assay (reference value: 0 to 4.4%); format: functional; conditions: read-out: GI

| SMILES | IC50 (MCF7 [1]) | IC50 (HeLa [2]) | IC50 [3] | IC50 [4] | IC50 (HeLa [5]) | IC50 (MCF7 [6]) | inhibition of growth at 10 µM (HeLa [9]) | inhibition of growth at 50 µM (MCF7 [10]) | inhibition of growth at 1.25 µM (HeLa [11]) | inhibition of growth at 100 µM (MCF7 [12]) | inhibition of growth at 25 µM [13] | inhibition of growth at 50 µM (HeLa [14]) | inhibition of growth at 1.25 µM (MCF7 [15]) | inhibition of growth at 25 µM (MCF7 [16]) | inhibition of growth at 5 µM (MCF7 [17]) | inhibition of growth at 2.5 µM [18] | inhibition of growth at 2.5 µM (MCF7 [19]) | inhibition of growth at 100 µM (HeLa [20]) | inhibition of growth at 100 µM [21] | inhibition of growth at 2.5 µM (HeLa [22]) | other results |
| --- | --- | --- | --- | --- | --- | --- | --- | --- | --- | --- | --- | --- | --- | --- | --- | --- | --- | --- | --- | --- | --- |
| COc1c(Br)cc(C/C(=N\O)C(=O)NCCCNCCCCNCCCNC(=O)/C(Cc2cc(Br)c(OC)c(Br)c2)=N/O)cc1Br | > 100 µM | > 100 µM | > 100 µM | > 100 µM | > 100 µM | > 100 µM | – | – | – | – | – | – | – | – | – | – | – | – | – | – | growth inhibition (GI) (HeLa [7]): tde; inhibition of growth at 5 µM (HeLa [8]): 90% |
| COc1c(Br)cc(C/C(=N\OCc2ccccc2)C(=O)NCCCNCCCCNCCCNC(=O)/C(Cc2cc(Br)c(OC)c(Br)c2)=N/OCc2ccccc2)cc1Br | 3.4 µM | 2.9 µM | 4.6 µM | 4 µM | 4 µM | 4.5 µM | 98.3% | 97.7% | 0% | 96.4% | 98.6% | 96.9% | 19.2% | 97.6% | 58.6% | 24.4% | 30% | 94.7% | 97.3% | 23.5% | inhibition of growth at 5 µM (HeLa [23]): 93.5%; inhibition of growth at 5 µM [24]: 68.2%; inhibition of growth at 1.25 µM [25]: 15.5%; inhibition of growth at 50 µM [26]: 98.4%; inhibition of growth at 10 µM [27]: 98.5%; inhibition of growth at 10 µM (MCF7 [28]): 98.9% |
| COc1c(Br)cc(C/C(=N\O)C(=O)NCCNCCNC(=O)/C(Cc2cc(Br)c(OC)c(Br)c2)=N/O)cc1Br | > 100 µM | > 100 µM | > 100 µM | > 100 µM | > 100 µM | > 100 µM | – | – | – | – | – | – | – | – | – | – | – | – | – | – | – |
| CO/N=C(\Cc1cc(Br)c(OC)c(Br)c1)C(=O)NCCCCCNC(=O)/C(Cc1cc(Br)c(OC)c(Br)c1)=N/OC | > 100 µM | > 100 µM | > 100 µM | > 100 µM | > 100 µM | > 100 µM | – | – | – | – | – | – | – | – | – | – | – | – | – | – | – |
| CO/N=C(\Cc1cc(Br)c(OC)c(Br)c1)C(=O)NCCNCCNC(=O)/C(Cc1cc(Br)c(OC)c(Br)c1)=N/OC | 30.9 µM | 10.8 µM | 27.9 µM | 25.8 µM | 25.8 µM | 27.1 µM | 24.5% | 96.9% | 11% | 96.9% | 26.7% | 95% | 11.4% | 46.2% | 20.3% | 21.3% | 23.9% | 97.1% | 95.6% | 4.8% | inhibition of growth at 25 µM (HeLa [29]): 80.1%; inhibition of growth at 5 µM (HeLa [23]): 0.1%; inhibition of growth at 5 µM [24]: 22.1%; inhibition of growth at 1.25 µM [25]: 19.9%; inhibition of growth at 50 µM [26]: 99%; inhibition of growth at 10 µM [27]: 20.2%; inhibition of growth at 10 µM (MCF7 [28]): 23% |
